Source: US10766902B2, “Wee-1 inhibiting pyrazolopyrimidinone compounds” (ALMAC DISCOVERY LIMITED, priority 2016, dated 2020)

Legend:
Type in all cases: biochemical
Details in all cases: tested at 300-350 nM
ABL1 = ABL1 (Homo sapiens (Human), UniProt P00519); test: SelectScreen Kinase Profiling: ABL1
Source text: (§1) Table 4 below highlights the selectivity of a representative compound of the invention, Example 5, against a panel of 50 kinases (assessed using the Invitrogen SelectScreen® Kinase Profiling Service).

ACVR1B (ALK4) = ACVR1B (ALK4) (Homo sapiens (Human), UniProt P36896); test: SelectScreen Kinase Profiling: ACVR1B (ALK4)
Source text: as §1

AKT1 (PKB alpha) = AKT1 (PKB alpha) (Homo sapiens (Human), UniProt P31749); test: SelectScreen Kinase Profiling: AKT1 (PKB alpha)
Source text: as §1

AMPK A1/B1/G1 = AMPK A1/B1/G1 (Homo sapiens (Human), UniProt Q13131); test: SelectScreen Kinase Profiling: AMPK A1/B1/G1
Source text: as §1

AURKA (Aurora A) = AURKA (Aurora A) (Homo sapiens (Human), UniProt O14965); test: SelectScreen Kinase Profiling: AURKA (Aurora A)
Source text: as §1

BTK = BTK (Homo sapiens (Human), UniProt Q06187); test: SelectScreen Kinase Profiling: BTK
Source text: as §1

CDK1/cyclin B = CDK1/cyclin B (Homo sapiens (Human), UniProt P06493); test: SelectScreen Kinase Profiling: CDK1/cyclin B
Source text: as §1

CHEK1 (CHK1) = CHEK1 (CHK1) (Homo sapiens (Human), UniProt O14757); test: SelectScreen Kinase Profiling: CHEK1 (CHK1)
Source text: as §1

CSNK1G2 (CK1 gamma 2) = CSNK1G2 (CK1 gamma 2) (Homo sapiens (Human), UniProt P78368); test: SelectScreen Kinase Profiling: CSNK1G2 (CK1 gamma 2)
Source text: as §1

CSNK2A1 (CK2 alpha 1) = CSNK2A1 (CK2 alpha 1) (Homo sapiens (Human), UniProt P68400); test: SelectScreen Kinase Profiling: CSNK2A1 (CK2 alpha 1)
Source text: as §1

DYRK3 = DYRK3 (Homo sapiens (Human), UniProt O43781); test: SelectScreen Kinase Profiling: DYRK3
Source text: as §1

EGFR (ErbB1) = EGFR (ErbB1) (Homo sapiens (Human), UniProt P00533); test: SelectScreen Kinase Profiling: EGFR (ErbB1)
Source text: as §1

EPHA2 = EPHA2 (Homo sapiens (Human), UniProt P29317); test: SelectScreen Kinase Profiling: EPHA2
Source text: as §1

ERBB2 (HER2) = ERBB2 (HER2) (Homo sapiens (Human), UniProt P04626); test: SelectScreen Kinase Profiling: ERBB2 (HER2)
Source text: as §1

FGFR1 = FGFR1 (Homo sapiens (Human), UniProt P11362); test: SelectScreen Kinase Profiling: FGFR1
Source text: as §1

FLT3 = FLT3 (Homo sapiens (Human), UniProt P36888); test: SelectScreen Kinase Profiling: FLT3
Source text: as §1

FRAP1 (mTOR) = FRAP1 (mTOR) (Homo sapiens (Human), UniProt P42345); test: SelectScreen Kinase Profiling: FRAP1 (mTOR)
Source text: as §1

GSK3B (GSK3 beta) = GSK3B (GSK3 beta) (Homo sapiens (Human), UniProt P49841); test: SelectScreen Kinase Profiling: GSK3B (GSK3 beta)
Source text: as §1

IGF1R = IGF1R (Homo sapiens (Human), UniProt P08069); test: SelectScreen Kinase Profiling: IGF1R
Source text: as §1

IKBKB (IKK beta) = IKBKB (IKK beta) (Homo sapiens (Human), UniProt O14920); test: SelectScreen Kinase Profiling: IKBKB (IKK beta)
Source text: as §1

INSR = INSR (Homo sapiens (Human), UniProt P06213); test: SelectScreen Kinase Profiling: INSR
Source text: as §1

IRAK4 = IRAK4 (Homo sapiens (Human), UniProt Q9NWZ3); test: SelectScreen Kinase Profiling: IRAK4
Source text: as §1

JAK3 = JAK3 (Homo sapiens (Human), UniProt P52333); test: SelectScreen Kinase Profiling: JAK3
Source text: as §1

KDR (VEGFR2) = KDR (VEGFR2) (Homo sapiens (Human), UniProt P35968); test: SelectScreen Kinase Profiling: KDR (VEGFR2)
Source text: as §1

KIT = KIT (Homo sapiens (Human), UniProt P10721); test: SelectScreen Kinase Profiling: KIT
Source text: as §1

MAP2K1 (MEK1) = MAP2K1 (MEK1) (Homo sapiens (Human), UniProt Q02750); test: SelectScreen Kinase Profiling: MAP2K1 (MEK1)
Source text: as §1

MAP4K4 (HGK) = MAP4K4 (HGK) (Homo sapiens (Human), UniProt O95819); test: SelectScreen Kinase Profiling: MAP4K4 (HGK)
Source text: as §1

MAPK1 (ERK2) = MAPK1 (ERK2) (Homo sapiens (Human), UniProt P28482); test: SelectScreen Kinase Profiling: MAPK1 (ERK2)
Source text: as §1

MAPK14 (p38 alpha) = MAPK14 (p38 alpha) (Homo sapiens (Human), UniProt Q16539); test: SelectScreen Kinase Profiling: MAPK14 (p38 alpha)
Source text: as §1

MAPK8 (JNK1) = MAPK8 (JNK1) (Homo sapiens (Human), UniProt P45983); test: SelectScreen Kinase Profiling: MAPK8 (JNK1)
Source text: as §1

MAPKAPK2 = MAPKAPK2 (Homo sapiens (Human), UniProt P49137); test: SelectScreen Kinase Profiling: MAPKAPK2
Source text: as §1

MARK2 = MARK2 (Homo sapiens (Human), UniProt Q7KZI7); test: SelectScreen Kinase Profiling: MARK2
Source text: as §1

MET (cMet) = MET (cMet) (Homo sapiens (Human), UniProt P08581); test: SelectScreen Kinase Profiling: MET (cMet)
Source text: as §1

NEK1 = NEK1 (Homo sapiens (Human), UniProt Q96PY6); test: SelectScreen Kinase Profiling: NEK1
Source text: as §1

NTRK1 (TRKA) = NTRK1 (TRKA) (Homo sapiens (Human), UniProt P04629); test: SelectScreen Kinase Profiling: NTRK1 (TRKA)
Source text: as §1

PAK4 = PAK4 (Homo sapiens (Human), UniProt O96013); test: SelectScreen Kinase Profiling: PAK4
Source text: as §1

PDGFRB (PDGFR beta) = PDGFRB (PDGFR beta) (Homo sapiens (Human), UniProt P09619); test: SelectScreen Kinase Profiling: PDGFRB (PDGFR beta)
Source text: as §1

PHKG2 = PHKG2 (Homo sapiens (Human), UniProt P15735); test: SelectScreen Kinase Profiling: PHKG2
Source text: as §1

PIM1 = PIM1 (Homo sapiens (Human), UniProt P11309); test: SelectScreen Kinase Profiling: PIM1
Source text: as §1

PLK1 = PLK1 (Homo sapiens (Human), UniProt P53350); test: SelectScreen Kinase Profiling: PLK1
Source text: as §1

PRKACA (PKA) = PRKACA (PKA) (Homo sapiens (Human), UniProt P17612); test: SelectScreen Kinase Profiling: PRKACA (PKA)
Source text: as §1

PRKCB1 (PKC beta I) = PRKCB1 (PKC beta I) (Homo sapiens (Human), UniProt P05771); test: SelectScreen Kinase Profiling: PRKCB1 (PKC beta I)
Source text: as §1

ROCK1 = ROCK1 (Homo sapiens (Human), UniProt Q13464); test: SelectScreen Kinase Profiling: ROCK1
Source text: as §1

RPS6KA3 (RSK2) = RPS6KA3 (RSK2) (Homo sapiens (Human), UniProt P51812); test: SelectScreen Kinase Profiling: RPS6KA3 (RSK2)
Source text: as §1

RPS6KB1 (p70S6K) = RPS6KB1 (p70S6K) (Homo sapiens (Human), UniProt P23443); test: SelectScreen Kinase Profiling: RPS6KB1 (p70S6K)
Source text: as §1

SRC = SRC (Homo sapiens (Human), UniProt P12931); test: SelectScreen Kinase Profiling: SRC
Source text: as §1

SYK = SYK (Homo sapiens (Human), UniProt P43405); test: SelectScreen Kinase Profiling: SYK
Source text: as §1

TEK (Tie2) = TEK (Tie2) (Homo sapiens (Human), UniProt Q02763); test: SelectScreen Kinase Profiling: TEK (Tie2)
Source text: as §1

Chain of TEK (Tie2) (Q02763 23-1124): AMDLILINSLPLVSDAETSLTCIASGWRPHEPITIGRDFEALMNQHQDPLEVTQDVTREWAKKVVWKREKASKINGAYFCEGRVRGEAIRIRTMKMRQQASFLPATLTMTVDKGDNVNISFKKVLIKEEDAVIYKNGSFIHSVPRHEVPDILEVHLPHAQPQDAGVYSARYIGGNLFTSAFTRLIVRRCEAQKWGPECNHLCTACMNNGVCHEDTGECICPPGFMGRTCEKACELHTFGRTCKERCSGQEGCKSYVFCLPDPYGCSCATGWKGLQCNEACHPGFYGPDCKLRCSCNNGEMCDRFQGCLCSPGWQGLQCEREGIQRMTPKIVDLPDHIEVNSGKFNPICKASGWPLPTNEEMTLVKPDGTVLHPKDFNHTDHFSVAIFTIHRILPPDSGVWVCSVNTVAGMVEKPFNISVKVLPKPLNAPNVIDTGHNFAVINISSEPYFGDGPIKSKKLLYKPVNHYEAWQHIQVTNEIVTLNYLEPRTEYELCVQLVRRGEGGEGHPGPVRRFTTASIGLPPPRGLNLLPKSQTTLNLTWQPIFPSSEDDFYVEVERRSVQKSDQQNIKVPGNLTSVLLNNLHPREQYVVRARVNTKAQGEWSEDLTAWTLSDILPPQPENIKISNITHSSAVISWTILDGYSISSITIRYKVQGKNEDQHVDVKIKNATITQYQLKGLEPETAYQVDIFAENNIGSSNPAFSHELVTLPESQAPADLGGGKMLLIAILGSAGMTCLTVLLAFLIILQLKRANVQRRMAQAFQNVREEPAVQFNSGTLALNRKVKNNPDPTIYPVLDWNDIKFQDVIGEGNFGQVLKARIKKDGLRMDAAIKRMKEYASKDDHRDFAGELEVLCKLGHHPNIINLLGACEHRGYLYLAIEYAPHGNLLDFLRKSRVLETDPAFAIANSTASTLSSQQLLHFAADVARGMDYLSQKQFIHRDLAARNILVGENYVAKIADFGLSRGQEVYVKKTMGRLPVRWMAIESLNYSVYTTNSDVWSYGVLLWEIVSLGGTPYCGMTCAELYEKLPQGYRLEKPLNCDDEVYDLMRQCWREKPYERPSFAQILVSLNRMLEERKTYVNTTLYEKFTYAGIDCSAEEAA
Chain of SRC (P12931 whole entry, looked up): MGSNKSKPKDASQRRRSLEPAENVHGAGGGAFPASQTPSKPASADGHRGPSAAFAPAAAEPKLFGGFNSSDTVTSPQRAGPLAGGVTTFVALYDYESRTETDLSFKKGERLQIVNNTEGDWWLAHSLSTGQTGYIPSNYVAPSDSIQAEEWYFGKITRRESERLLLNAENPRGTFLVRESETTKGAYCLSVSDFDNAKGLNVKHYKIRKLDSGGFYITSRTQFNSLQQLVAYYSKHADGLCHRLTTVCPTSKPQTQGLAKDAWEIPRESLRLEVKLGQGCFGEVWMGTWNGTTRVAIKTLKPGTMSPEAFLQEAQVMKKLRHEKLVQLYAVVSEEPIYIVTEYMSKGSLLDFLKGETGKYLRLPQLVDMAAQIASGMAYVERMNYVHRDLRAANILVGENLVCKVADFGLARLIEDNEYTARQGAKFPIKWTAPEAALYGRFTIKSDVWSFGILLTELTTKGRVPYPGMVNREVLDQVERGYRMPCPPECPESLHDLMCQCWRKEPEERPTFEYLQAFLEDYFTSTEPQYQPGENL
Chain of PRKCB1 (PKC beta I) (P05771 whole entry): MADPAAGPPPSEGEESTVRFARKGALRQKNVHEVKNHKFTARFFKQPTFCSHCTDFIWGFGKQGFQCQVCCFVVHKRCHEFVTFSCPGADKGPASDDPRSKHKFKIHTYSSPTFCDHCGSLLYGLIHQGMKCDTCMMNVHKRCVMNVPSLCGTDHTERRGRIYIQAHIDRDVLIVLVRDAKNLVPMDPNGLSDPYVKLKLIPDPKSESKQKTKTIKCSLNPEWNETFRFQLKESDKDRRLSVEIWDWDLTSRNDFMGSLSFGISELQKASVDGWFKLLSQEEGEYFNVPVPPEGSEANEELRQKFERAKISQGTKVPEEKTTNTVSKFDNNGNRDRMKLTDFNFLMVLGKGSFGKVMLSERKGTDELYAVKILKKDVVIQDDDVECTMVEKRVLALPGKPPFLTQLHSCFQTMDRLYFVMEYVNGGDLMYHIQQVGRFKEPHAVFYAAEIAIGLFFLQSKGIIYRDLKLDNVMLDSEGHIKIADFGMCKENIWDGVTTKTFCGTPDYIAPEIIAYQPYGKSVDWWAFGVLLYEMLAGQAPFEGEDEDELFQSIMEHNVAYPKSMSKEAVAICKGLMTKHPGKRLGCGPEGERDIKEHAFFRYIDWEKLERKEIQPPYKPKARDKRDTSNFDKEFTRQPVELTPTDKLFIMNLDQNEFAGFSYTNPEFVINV
Chain of BTK (Q06187 whole entry): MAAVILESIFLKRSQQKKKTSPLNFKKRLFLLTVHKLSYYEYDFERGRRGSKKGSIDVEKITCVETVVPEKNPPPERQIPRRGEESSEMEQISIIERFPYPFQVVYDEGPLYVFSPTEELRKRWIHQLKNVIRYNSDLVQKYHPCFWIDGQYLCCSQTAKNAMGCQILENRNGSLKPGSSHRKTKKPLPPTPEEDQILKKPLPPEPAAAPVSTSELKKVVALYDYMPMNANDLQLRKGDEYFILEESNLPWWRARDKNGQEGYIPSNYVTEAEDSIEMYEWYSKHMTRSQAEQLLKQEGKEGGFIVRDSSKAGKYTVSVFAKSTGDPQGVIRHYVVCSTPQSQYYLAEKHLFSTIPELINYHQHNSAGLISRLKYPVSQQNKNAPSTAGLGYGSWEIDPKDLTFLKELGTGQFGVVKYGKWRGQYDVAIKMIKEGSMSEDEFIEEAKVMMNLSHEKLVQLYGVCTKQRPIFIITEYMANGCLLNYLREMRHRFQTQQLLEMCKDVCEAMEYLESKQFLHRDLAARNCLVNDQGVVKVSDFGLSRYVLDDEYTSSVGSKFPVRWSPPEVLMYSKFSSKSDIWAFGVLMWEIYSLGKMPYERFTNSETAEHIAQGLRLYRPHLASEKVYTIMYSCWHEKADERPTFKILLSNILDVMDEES
Chain of PDGFRB (PDGFR beta) (P09619 33-1106): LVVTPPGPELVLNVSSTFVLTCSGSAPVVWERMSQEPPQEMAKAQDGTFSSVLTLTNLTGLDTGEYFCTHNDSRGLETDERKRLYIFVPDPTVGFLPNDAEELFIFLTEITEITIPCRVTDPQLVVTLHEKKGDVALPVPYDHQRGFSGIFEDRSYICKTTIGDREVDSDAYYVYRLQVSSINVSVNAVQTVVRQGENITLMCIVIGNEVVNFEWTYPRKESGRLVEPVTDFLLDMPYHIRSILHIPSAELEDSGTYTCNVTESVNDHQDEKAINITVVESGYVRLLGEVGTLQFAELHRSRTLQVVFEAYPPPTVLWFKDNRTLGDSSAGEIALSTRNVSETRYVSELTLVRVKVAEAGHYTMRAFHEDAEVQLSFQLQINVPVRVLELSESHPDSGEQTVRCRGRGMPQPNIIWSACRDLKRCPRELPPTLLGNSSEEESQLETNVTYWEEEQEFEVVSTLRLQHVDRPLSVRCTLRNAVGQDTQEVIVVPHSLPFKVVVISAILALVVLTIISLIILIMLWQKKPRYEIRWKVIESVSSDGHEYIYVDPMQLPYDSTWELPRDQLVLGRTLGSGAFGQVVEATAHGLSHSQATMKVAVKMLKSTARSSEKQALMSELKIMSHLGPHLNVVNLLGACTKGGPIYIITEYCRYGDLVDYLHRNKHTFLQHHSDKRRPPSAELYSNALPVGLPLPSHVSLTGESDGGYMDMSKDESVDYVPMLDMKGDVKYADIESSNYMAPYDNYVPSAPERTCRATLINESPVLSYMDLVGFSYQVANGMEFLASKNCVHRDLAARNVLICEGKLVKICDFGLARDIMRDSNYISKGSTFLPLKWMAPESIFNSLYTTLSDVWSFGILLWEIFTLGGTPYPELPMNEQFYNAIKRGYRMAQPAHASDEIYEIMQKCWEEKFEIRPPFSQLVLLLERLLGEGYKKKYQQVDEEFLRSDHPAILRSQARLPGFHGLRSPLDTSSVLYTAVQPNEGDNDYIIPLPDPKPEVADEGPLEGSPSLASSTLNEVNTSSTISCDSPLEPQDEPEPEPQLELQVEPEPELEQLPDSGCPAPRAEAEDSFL
Chain of CDK1/cyclin B (P06493 whole entry): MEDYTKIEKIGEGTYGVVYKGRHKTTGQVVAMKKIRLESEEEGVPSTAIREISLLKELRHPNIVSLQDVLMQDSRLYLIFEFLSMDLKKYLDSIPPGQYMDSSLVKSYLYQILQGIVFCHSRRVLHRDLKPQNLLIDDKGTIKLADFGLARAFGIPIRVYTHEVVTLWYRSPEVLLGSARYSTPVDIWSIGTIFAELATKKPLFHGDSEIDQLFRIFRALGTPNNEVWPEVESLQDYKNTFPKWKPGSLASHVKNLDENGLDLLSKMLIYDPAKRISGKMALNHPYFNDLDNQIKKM
Chain of CDK1/cyclin B (P14635 whole entry partner): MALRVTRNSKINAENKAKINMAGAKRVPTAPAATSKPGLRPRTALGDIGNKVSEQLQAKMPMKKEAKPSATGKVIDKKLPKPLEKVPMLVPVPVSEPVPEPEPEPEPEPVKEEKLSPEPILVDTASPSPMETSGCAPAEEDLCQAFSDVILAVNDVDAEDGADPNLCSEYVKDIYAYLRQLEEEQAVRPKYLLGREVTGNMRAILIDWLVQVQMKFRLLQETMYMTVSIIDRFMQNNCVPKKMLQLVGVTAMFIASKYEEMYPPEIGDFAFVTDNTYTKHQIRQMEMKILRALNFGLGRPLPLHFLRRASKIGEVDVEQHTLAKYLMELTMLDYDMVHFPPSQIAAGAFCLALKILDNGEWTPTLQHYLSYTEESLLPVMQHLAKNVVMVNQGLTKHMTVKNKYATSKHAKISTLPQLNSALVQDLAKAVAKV

C=CCn1c(=O)c2cnc(Nc3ccc(N4CCN(C)CC4)cc3)nc2n1-c1cccc(C(C)(C)O)n1 [reference compound]
inhibition of ABL1 (ABL1): + (inhibition over 50% (tested at 300-350 nM))
inhibition of ACVR1B (ALK4) (ACVR1B (ALK4)): − (inhibition under 50% (tested at 300-350 nM))
inhibition of AKT1 (PKB alpha) (AKT1 (PKB alpha)): − (inhibition under 50% (tested at 300-350 nM))
inhibition of AMPK A1/B1/G1 (AMPK A1/B1/G1): − (inhibition under 50% (tested at 300-350 nM))
inhibition of AURKA (Aurora A) (AURKA (Aurora A)): − (inhibition under 50% (tested at 300-350 nM))
inhibition of BTK (BTK): − (inhibition under 50% (tested at 300-350 nM))
inhibition of CDK1/cyclin B (CDK1/cyclin B): − (inhibition under 50% (tested at 300-350 nM))
inhibition of CHEK1 (CHK1) (CHEK1 (CHK1)): − (inhibition under 50% (tested at 300-350 nM))
inhibition of CSNK1G2 (CK1 gamma 2) (CSNK1G2 (CK1 gamma 2)): − (inhibition under 50% (tested at 300-350 nM))
inhibition of CSNK2A1 (CK2 alpha 1) (CSNK2A1 (CK2 alpha 1)): − (inhibition under 50% (tested at 300-350 nM))
inhibition of DYRK3 (DYRK3): − (inhibition under 50% (tested at 300-350 nM))
inhibition of EGFR (ErbB1) (EGFR (ErbB1)): + (inhibition over 50% (tested at 300-350 nM))
inhibition of EPHA2 (EPHA2): − (inhibition under 50% (tested at 300-350 nM))
inhibition of ERBB2 (HER2) (ERBB2 (HER2)): − (inhibition under 50% (tested at 300-350 nM))
inhibition of FGFR1 (FGFR1): − (inhibition under 50% (tested at 300-350 nM))
inhibition of FLT3 (FLT3): − (inhibition under 50% (tested at 300-350 nM))
inhibition of FRAP1 (mTOR) (FRAP1 (mTOR)): − (inhibition under 50% (tested at 300-350 nM))
inhibition of GSK3B (GSK3 beta) (GSK3B (GSK3 beta)): − (inhibition under 50% (tested at 300-350 nM))
inhibition of IGF1R (IGF1R): − (inhibition under 50% (tested at 300-350 nM))
inhibition of IKBKB (IKK beta) (IKBKB (IKK beta)): − (inhibition under 50% (tested at 300-350 nM))
inhibition of INSR (INSR): − (inhibition under 50% (tested at 300-350 nM))
inhibition of IRAK4 (IRAK4): − (inhibition under 50% (tested at 300-350 nM))
inhibition of JAK3 (JAK3): − (inhibition under 50% (tested at 300-350 nM))
inhibition of KDR (VEGFR2) (KDR (VEGFR2)): − (inhibition under 50% (tested at 300-350 nM))
inhibition of KIT (KIT): − (inhibition under 50% (tested at 300-350 nM))
inhibition of MAP2K1 (MEK1) (MAP2K1 (MEK1)): − (inhibition under 50% (tested at 300-350 nM))
inhibition of MAP4K4 (HGK) (MAP4K4 (HGK)): + (inhibition over 50% (tested at 300-350 nM))
inhibition of MAPK1 (ERK2) (MAPK1 (ERK2)): − (inhibition under 50% (tested at 300-350 nM))
inhibition of MAPK14 (p38 alpha) (MAPK14 (p38 alpha)): − (inhibition under 50% (tested at 300-350 nM))
inhibition of MAPK8 (JNK1) (MAPK8 (JNK1)): − (inhibition under 50% (tested at 300-350 nM))
inhibition of MAPKAPK2 (MAPKAPK2): − (inhibition under 50% (tested at 300-350 nM))
inhibition of MARK2 (MARK2): − (inhibition under 50% (tested at 300-350 nM))
inhibition of MET (cMet) (MET (cMet)): − (inhibition under 50% (tested at 300-350 nM))
inhibition of NEK1 (NEK1): − (inhibition under 50% (tested at 300-350 nM))
inhibition of NTRK1 (TRKA) (NTRK1 (TRKA)): − (inhibition under 50% (tested at 300-350 nM))
inhibition of PAK4 (PAK4): − (inhibition under 50% (tested at 300-350 nM))
inhibition of PDGFRB (PDGFR beta) (PDGFRB (PDGFR beta)): − (inhibition under 50% (tested at 300-350 nM))
inhibition of PHKG2 (PHKG2): − (inhibition under 50% (tested at 300-350 nM))
inhibition of PIM1 (PIM1): − (inhibition under 50% (tested at 300-350 nM))
inhibition of PLK1 (PLK1): − (inhibition under 50% (tested at 300-350 nM))
inhibition of PRKACA (PKA) (PRKACA (PKA)): − (inhibition under 50% (tested at 300-350 nM))
inhibition of PRKCB1 (PKC beta I) (PRKCB1 (PKC beta I)): − (inhibition under 50% (tested at 300-350 nM))
inhibition of ROCK1 (ROCK1): − (inhibition under 50% (tested at 300-350 nM))
inhibition of RPS6KA3 (RSK2) (RPS6KA3 (RSK2)): − (inhibition under 50% (tested at 300-350 nM))
inhibition of RPS6KB1 (p70S6K) (RPS6KB1 (p70S6K)): − (inhibition under 50% (tested at 300-350 nM))
inhibition of SRC (SRC): + (inhibition over 50% (tested at 300-350 nM))
inhibition of SYK (SYK): + (inhibition over 50% (tested at 300-350 nM))
inhibition of TEK (Tie2) (TEK (Tie2)): − (inhibition under 50% (tested at 300-350 nM))
